Assay results from PMC6271477, “Effects of Single Amino Acid Substitution on the Biophysical Properties and Biological Activities of an Amphipathic α-Helical Antibacterial Peptide Against Gram-Negative Bacteria” (Molecules, 2014).
Converted amounts (≈) assume the structure as drawn. Read-outs that look alike come from different tables or passages of the source.

Experiments:
[1] = CD spectroscopy, helicity in benign buffer and in 50% TFE; assay type: physicochemical; settings: for [θ]222, mean residue molar ellipticity, benign / [θ]222, mean residue molar ellipticity, 50% TFE: CD at 222 nm, peptide 75 μM; for [θ]222, mean residue molar ellipticity, benign / [θ]222, mean residue molar ellipticity, 50% TFE / % helix, 50% TFE: 25 °C; for [θ]222, mean residue molar ellipticity, benign: KP buffer (100 mM KCl, 50 mM K2HPO4/KH2PO4, pH 7.0); for [θ]222, mean residue molar ellipticity, 50% TFE / % helix, 50% TFE: KP buffer diluted 1:1 (v/v) with TFE; for % helix, 50% TFE / % helix, benign: relative to the molar ellipticity of peptide V16E in 50% TFE; for % helix, benign: KP buffer pH 7.0, 25 °C
Experimental: The secondary structures of peptides were determined in benign buffer and in a hydrophobic environment (50% trifluoroethanol, TFE) to mimic the hydrophobic environment of the membrane. […] The principle of side chain interaction at the i to i + 3 and i to i + 4 positions has been used to promote α-helix stability, for example, the incorporation of Lys and Glu residues to stabilize electrostatic attractions. Thus, the helicity of peptide V16E in the presence of 50% TFE that presented the greatest value among all analogs should rely on the contribution of the electrostatic attraction of the side chain of K13 and E16, which stabilizes the helix. The relative helicity is 100% for peptide V16E in 50% TFE, showing the importance of the salt bridges of K13 and E16 to stabilize the helical structure. In general, subtle side-chain alterations by single amino acid substitutions made no significant changes on secondary structures both in aqueous and in hydrophobic environments (Table 2).
Circular dichroism spectra were measured with a 0.02 cm path length quartz cuvette on a Jasco J-810 spectropolarimeter (Jasco, Tokyo, Japan) at 25 °C. Data were collected from 250 to 190 nm at a sensitivity of 100 millidegrees, response time of 1 s, bandwidth of 1.0 nm and a scan speed of 100 nm/min. Peptides were measured at a concentration of 75 μM in a benign buffer (50 mM KH2PO4/K2HPO4, 100 mM KCl, pH 7) or the benign buffer mixed with 50% 2,2,2-trifluoroethanol (TFE). The mean residue molar ellipticities were calculated using the equation [θ] = θ/10lcMn, where θ is the ellipticity in millidegrees, l is the optical path length of the cuvette in centimeters, cM is the peptide concentration in mole/liter and n is the number of residues in the peptide.

[2] = Tryptophan fluorescence in HEPES buffer; assay type: physicochemical; settings: peptide 2 μM, excitation 280 nm
Source text: (§1) Upon peptide diffusion into the cytoplasmic membrane, evidence of selective interaction between peptides with bacterial versus mammalian cytoplasmic membrane was illustrated by the binding events of the peptides to anionic or zwitterionic lipid vesicles. The repositioning of the tryptophan indole group in an environment of reduced polarity upon membrane binding results in a blue shift in the fluorescence excitation maximum coupled with an enhancement of emission intensity. Lipid/peptide (L/P) ratios were maintained high enough at low peptide concentration (2 μM) in order to mimic the initial steps of peptide-membrane binding. The spectra were recorded as shown in Supplementary Figure S1. […] The significant blue shifts of Δλmax (17 to 23 nm) for all peptides upon exposure to PC/PG vesicles indicated a membrane partition state of Trp in negatively charged vesicles containing 30% anionic lipids (PG).
(§2) Fluorescence emission spectra of peptide Trp residues were monitored by a Shimadzu RF-5301 spectrofluorometer. The excitation of wavelength was set as 280 nm and the emission spectra of each peptide, with or without lipid vesicles, were recorded between 300 and 450 nm. Thus three curves were recorded for each peptide, in HEPES buffer or with either PC/PG vesicles or PC/cholesterol vesicles. The blue shift of Trp residues in vesicles were referred to in buffer condition. The final concentrations of peptide and lipid were 2 μM and 100 μM (1/50), respectively.

[3] = system: E. coli ATCC25922; assay type: cell-based
Experimental: (§3) Minimal inhibitory concentrations (MIC) were determined using a broth dilution method. Briefly, bacteria were grown overnight at 37 °C in Mueller–Hinton (MH) Broth, diluted in the same medium and transferred into 96-well microtiter plates (90 μL/well). Peptides were serially diluted using 0.2% bovine serum albumin containing 0.01% acetic acid and added to the microtiter plates in a volume of 10 μL per well to give a final concentration of 5 × 10^5 CFU/mL. MICs were defined as the lowest peptide concentration that inhibited bacterial growth after incubation for 24 h at 37 °C.

[4] = system: E. coli Clinical Isolate; assay type: cell-based
Experimental: as §3

[5] = system: P. aeruginosa ATCC27853; assay type: cell-based
Experimental: as §3

[6] = system: P. aeruginosa H188; assay type: cell-based
Experimental: as §3

[7] = Tryptophan fluorescence, binding to lipid vesicles; settings: for Tryptophan fluorescence emission maximum: excitation 280 nm
Experimental: as §1, with “The repositioning of the tryptophan indole group in an environment of reduced polarity upon membrane binding results in a blue shift in the fluorescence excitation maximum coupled with an enhancement of emission intensity.” left out
Unilamellar vesicles were prepared by a standard procedure with either PC/PG (7:3, w/w) or PC/cholesterol (8:1, w/w) as described previously. Briefly, the desired mixtures of lipids were dissolved in a chloroform/methanol mixture (2:1, v/v), dried under nitrogen and then lyophilized for 24 h to remove traces of organic solvent. Dry lipid films were suspended in 10 mM HEPES buffer containing 150 mM NaCl (pH 7.4) by vortex mixing. After five freeze-thawing cycles, the suspension was extruded 15 times through double polycarbonate membranes with 0.1 μm diameter pores on an Avanti mini-extruder apparatus. The lipid concentration was determined by phosphorus analysis as previously reported.
as §2

[8] = Analytical RP-HPLC retention time as a measure of peptide hydrophobicity; assay type: physicochemical; settings: RP-HPLC at 25 °C, Zorbax 300 SB-C8 column, linear AB gradient, A 0.1% aqueous TFA, B 0.1% TFA in acetonitrile, 1 mL/min, detection at 210 nm
Experimental: Among substitutions, the retention times ranged from 32.2 min (peptide V16K) to 40.4 min (peptide V16L), which reflect the pure effects of single amino acid substitutions. Thus, the retention times of peptides reflect the relative hydrophobicity of side chains. Consistent with previous studies, the hydrophobicity of peptide analogs was generally in the following order: Lys < Gly < Ser < Ala < Val < Leu. Glu-substituted peptide was an exception, as it contains a negatively-charged side chain and this should decrease the hydrophobicity of the peptide dramatically.
Peptides were analyzed on a Shimadzu LC-20A HPLC using a Zorbax 300 SB-C8 column (150 ° 4.6 mm i.d., 5 μm particle size, 300 Å pore size) from Agilent Technologies using a linear AB gradient and a flow rate of 1 mL/min, where solvents A and B were as described above. Absorbance signals of peptides were detected at 210 nm.

[9] = PC/PG (7:3, w/w) vesicles versus HEPES buffer, lipid:peptide 50:1, peptide 2 μM
[10] = PC/PG (7:3, w/w) vesicles, lipid and peptide in a molar ratio of 50:1, peptide 2 μM, lipid 100 μM
[11] = PC/cholesterol (8:1, w/w) vesicles versus HEPES buffer, peptide 2 μM, lipid 100 μM
[12] = PC/cholesterol (8:1, w/w) vesicles, peptide 2 μM, lipid 100 μM

CC[C@H](C)[C@H](NC(=O)[C@H](C)NC(=O)[C@H](CCCCN)NC(=O)[C@H](CC(C)C)NC(=O)[C@H](C)NC(=O)[C@@H](NC(=O)[C@H](Cc1cnc[nH]1)NC(=O)[C@H](CC(C)C)NC(=O)[C@@H](NC(=O)[C@@H](NC(=O)[C@H](CCCCN)NC(=O)[C@H](CCCCN)NC(=O)[C@H](C)NC(=O)[C@H](CO)NC(=O)[C@H](CCCCN)NC(=O)[C@H](Cc1ccccc1)NC(=O)[C@@H](NC(=O)[C@H](CCCCN)NC(=O)[C@H](CC(C)C)NC(=O)[C@H](Cc1ccccc1)NC(=O)[C@H](CO)NC(=O)[C@H](CCCCN)NC(=O)[C@H](Cc1c[nH]c2ccccc12)NC(=O)[C@H](CCCCN)NC(C)=O)[C@@H](C)O)[C@@H](C)O)C(C)C)[C@@H](C)O)C(=O)N[C@@H](CO)C(=O)N[C@@H](CO)C(N)=O [P]
[θ]222, mean residue molar ellipticity, benign [1]: −2,592 degree·cm^2·dmol^−^1
[θ]222, mean residue molar ellipticity, 50% TFE [1]: −29,726 degree·cm^2·dmol^−^1
% helix, 50% TFE [1]: 98.9%
% helix, benign [1]: 8.6%
Tryptophan fluorescence emission maximum [2]: 350 nm
MIC ([3]; E. coli ATCC25922, MH broth, 5 × 10^5 CFU/mL, 24 h at 37 °C): 1 µg/mL (≈ 0.334 µM)
MIC ([4]; E. coli Clinical Isolate, MH broth, 5 × 10^5 CFU/mL, 24 h at 37 °C): 1 µg/mL (≈ 0.334 µM)
MIC ([5]; P. aeruginosa ATCC27853, MH broth, 5 × 10^5 CFU/mL, 24 h at 37 °C): 4 µg/mL (≈ 1.34 µM)
MIC ([6]; P. aeruginosa H188, MH broth, 5 × 10^5 CFU/mL, 24 h at 37 °C): 4 µg/mL (≈ 1.34 µM)
Blue shift in emission maximum [7, 9]: 22 nm
Tryptophan fluorescence emission maximum [7, 10]: 328 nm
Blue shift in emission maximum [7, 11]: 1 nm
Tryptophan fluorescence emission maximum [7, 12]: 349 nm
tR, retention time during RP-HPLC (relative hydrophobicity) [8]: 38.2 min

Ac-KWKSFLKTFKSAKKTKLHTALKAISS-NH2 [Peptide V16K]
[θ]222, mean residue molar ellipticity, benign [1]: −1,990 degree·cm^2·dmol^−^1
[θ]222, mean residue molar ellipticity, 50% TFE [1]: −29,313 degree·cm^2·dmol^−^1
% helix, 50% TFE [1]: 97.5%
% helix, benign [1]: 6.6%
Tryptophan fluorescence emission maximum [2]: 350 nm
MIC ([3]; ATCC25922, 24 h): 32 µg/mL
MIC ([4]; Clinical Isolate, 24 h): 8 µg/mL
MIC ([5]; ATCC27853, 24 h): 32 µg/mL
MIC ([6]; H188, 24 h): 16 µg/mL
Blue shift in emission maximum [7, 9]: 21 nm
Tryptophan fluorescence emission maximum [7, 10]: 329 nm
Blue shift in emission maximum [7, 11]: 1 nm
Tryptophan fluorescence emission maximum [7, 12]: 349 nm
tR, retention time during RP-HPLC (relative hydrophobicity) [8]: 32.2 min
